Patent US20240327411A1, “SIRT6 ACTIVATORS” (The Board of Regents of The University of Texas System, priority 2022, published 2024)
Several values for one entry are separate records, joined by “and”; a condition that tells them apart may be missing. Identical values can stand only once.

What was measured:
Sirt6 [1] = biological target: T1, Sirt6 (Homo sapiens, UniProt Q8N6T7); details: literature value, cited from earlier work
Sirt6 [2] = biological target: T1, Sirt6; assay: Sirt6-dependent peptide deacetylation, FLUOR DE LYS / Sirt6 fluorometric activity kit; format: biochemical; details: mean ± SD, at least two independent experiments; for Activation Fold 30 μM: compound at 30 μM; for Activation Fold 100 μM: compound at 100 μM
Experimental: Sirt6/Sirt1/Sirt2/Sirt3 activity was tested by Activity Assay Kits (Abcam) according to the manufacturer's instruction with minor modification. […] All experiments were conducted at room temperature.

Sirt6 [3] = biological target: T1, Sirt6; assay: Nucleosome test: Sirt6-dependent H3K9 deacetylation of nucleosomes from HEK293T cells, Western blot; format: biochemical; details: 100 μM, 30° C., 60 minutes
Experimental: (§1) . Nucleosomes extracted from HEK293T cells were incubated with 100 μM of selected compounds or Vehicle at 30° C. for 60 minutes. Acetylated H3K9 and total H3 were detected by Western blot. The level of acetylated H3K9 was quantified by Image Lab software. FIGS. 5B and 5C show the cell viability which was assessed by MTT assay. R28 cells were treated with 30 μM or 100 μM compounds for 24 hours. Data were presented as mean±SEM. The experiment was repeated at least three times. ***p<0.001; ****p<0.0001.
Next, effects of selected compounds were explored for Sirt6-dependent deacetylation of complete nucleosomes extracted from human embryonic kidney (HEK) 293T cells, as nucleosomes represent more physiologically relevant substrates. […]. Briefly, HEK 293T cells in 100 mm dish were lysed with lysis buffer supplemented with PIC and PMSF for 30 min. After centrifugation for 10 min at 5000 rpm at 4° C., supernatant was removed and nuclei pellet was resuspended with digestion buffer supplemented with PIC and PMSF for 5 min at 37° C. Working enzymatic sharing cocktail was added to digest the chromatin, and EDTA was added after incubation to stop the digestion. Digested nucleosome was obtained in the supernatant after centrifugation for 10 min at 15000 rpm at 4° C. and the concentration was quantified by measuring the absorbance at […]. 20 μg nucleosome was incubated in solution (1× buffer, 0.5 μL recombinant Sirt6 and […] NAD, from SIRT6 ACTIVITY ASSAY KIT) for 60 min. To test the effects of the compounds on Sirt6 activity, corresponding compound or DMSO control was added before incubation. The reaction mixture was analyzed by Western blot.
Proteins were extracted from cells with PIERCE RIPA BUFFER (89901, ThermoFisher Scientific), and protein concentration was determined using PIERCE BCA PROTEIN ASSAY KIT (23225, ThermoFisher Scientific). Equal amounts of protein were loaded and separated by SDS-PAGE gel. Next, separated proteins were transferred onto Nitrocellulose Blotting Membranes (A29457237, GE Healthcare Life science), and then the membranes were blocked by 5% non-fat dry milk. After incubation with corresponding primary antibodies against H3K9ac, H3 and Sirt6 at a 1:1000 dilution, or α-tubulin at a 1:5000 dilution, goat anti-mouse or goat anti-rabbit secondary antibodies at a 1:5000 dilution were applied. Finally, membranes were incubated with enhanced chemiluminescent and protein bands were detected by CHEMIDOC imaging system (Bio-Rad). Image-Lab software was used to analyze the intensities of the protein bands.

[4] = system: retinal precursor cells (R28); assay: MTT cell viability assay in R28 cells; format: cell-based; details: 30 μM, 24 hours
Experimental: as §1, with “FIGS. 5A-5C: FIGS. 5A-5C display the deacetylation effect and cytotoxicity of selected compounds. […] Nucleosomes” for “. Nucleosomes”
R28 cells were seeded in 96 well plates at a density of 1×10^4/well overnight, then treated with compounds for 24 h. MTT (MilliporeSigma) was added to cells (20 μL/well) and incubated for 3.5 h. After medium was removed, 100 μL dimethyl sulfoxide (DMSO) was added into each well. Absorbance was measured at 540 nm using a microplate reader.

BV2 cells = assay: LPS-induced inflammatory gene mRNA expression in BV2 cells, q-PCR; format: cell-based, murine; details: for LPS-induced expression of IL-1β, IL-6, MCP-1, and TNFα / ICAM-1 induction / LPS-induced IL-1β, IL-6, and MCP-1 response / LPS-induced iNOS and CXCL10 expression / VCAM-1 induction: BV2 cells, 100 ng/mL LPS 6 hours, mRNA; for LPS-induced expression of IL-1β, IL-6, MCP-1, and TNFα: 30 μM pretreatment 30 minutes; for ICAM-1 induction / LPS-induced IL-1β, IL-6, and MCP-1 response / LPS-induced iNOS and CXCL10 expression / VCAM-1 induction: 30 μM; for LPS-induced proinflammatory cytokine/chemokine production: summary statement
SARS-CoV-2 = assay: microbe, parasite or virus in culture; format: cell-based
A549-hACE2 cells = assay: Cell viability assay in A549-hACE2 cells; details: 50 μM, 48 h

T1 sequence (Q8N6T7 whole entry): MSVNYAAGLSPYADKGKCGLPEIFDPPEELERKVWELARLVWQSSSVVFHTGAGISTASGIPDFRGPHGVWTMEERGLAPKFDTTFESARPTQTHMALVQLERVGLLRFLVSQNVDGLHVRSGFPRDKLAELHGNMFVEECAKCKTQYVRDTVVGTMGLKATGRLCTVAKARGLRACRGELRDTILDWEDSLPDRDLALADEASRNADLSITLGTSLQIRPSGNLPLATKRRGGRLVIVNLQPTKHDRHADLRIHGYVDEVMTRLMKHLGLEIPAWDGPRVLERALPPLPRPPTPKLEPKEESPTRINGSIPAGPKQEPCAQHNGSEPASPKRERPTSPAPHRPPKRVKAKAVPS

Row | SMILES | Activation Fold 30 μM (Sirt6 [2]) | Activation Fold 100 μM (Sirt6 [2]) | acetylation of H3K9 in the nucleosome test (Sirt6 [3]) | toxicity on retinal precursor cells (R28) [4] | LPS-induced expression of IL-1β, IL-6, MCP-1, and TNFα (BV2 cells) | LPS-induced IL-1β, IL-6, and MCP-1 response (BV2 cells) | LPS-induced iNOS and CXCL10 expression (BV2 cells) | LPS-induced proinflammatory cytokine/chemokine production (BV2 cells) | other results
1 | CCCCCCCC/C=C\CCCCCCCC(=O)NCCO [Oleoylethanolamide] | – | – | – | – | – | – | – | – | maximum activation (Emax) of Sirt6 deacetylation (Sirt6 [1]): 2.1 fold
2 | c1ccc2c(c1)NC(c1cccnc1N1CCN(CCN3CCCC3)CC1)c1cccn1-2 (centres unmarked) [Compound 47, 4-(2-(4-(2-(Pyrrolidin-1-yl)ethyl)piperazin-1-yl)pyridin-3-yl)-4,5-dihydropyrrolo[1,2-a]quinoxaline] | 4.80 ± 0.19 fold | 5.38 ± 0.29 fold | no effect | no obvious toxicity | strongly inhibited | almost reversed | significantly repressed | strongly repressed | ICAM-1 induction (BV2 cells): slight inhibition; VCAM-1 induction (BV2 cells): obviously inhibit
3 | OC1CN(CCN2CCN(c3ncccc3C3Nc4ccccc4-n4cccc43)CC2)C1 (centres unmarked) [Compound 46, 1-(2-(4-(3-(4,5-Dihydropyrrolo[1,2-a]quinoxalin-4-yl)pyridin-2-yl)piperazin-1-yl)ethyl)azetidin-3-ol] | 3.30 ± 0.11 fold | 6.30 ± 0.25 fold | significantly decreased the acetylation of H3K9 | no obvious toxicity | strongly inhibited | almost reversed | significantly repressed | strongly repressed | VCAM-1 induction (BV2 cells): obviously inhibit; potency in inhibiting SARS-CoV-2 infection (in words) (SARS-CoV-2): micromolar potency; cytotoxicity at the highest tested concentration (A549-hACE2 cells): none of these compounds exhibited significant cytotoxicity
4 | c1ccc2c(c1)NC(c1cccnc1N1CCN(CCn3ccnc3)CC1)c1cccn1-2 (centres unmarked) [Compound 50, 4-(2-(4-(2-(1H-Imidazol-1-yl)ethyl)piperazin-1-yl)pyridin-3-yl)-4,5-dihydropyrrolo[1,2-a]quinoxaline] | 3.34 ± 0.19 fold | 6.29 ± 0.02 fold | significantly decreased the acetylation of H3K9 | no obvious toxicity | strongly inhibited | almost reversed | significantly repressed | strongly repressed | ICAM-1 induction (BV2 cells): slight inhibition
5 | O=C(O)c1ccc2c(c1)C(=O)N(c1ccc(N(C(=O)c3c(Cl)cc(Cl)cc3Cl)C(=O)c3c(Cl)cc(Cl)cc3Cl)c(Cl)c1)C2=O [CL5D] | – | – | – | – | – | – | – | – | Sirt6 activation at 3 μM (Sirt6 [1]; concentration of 3 μM): 4 fold
6 | CN(C)CCN1CCN(c2ccccc2C2Nc3ccccc3-n3cccc32)CC1 (centres unmarked) [Compound 63, 2-(4-(2-(4,5-Dihydropyrrolo[1,2-a]quinoxalin-4-yl)phenyl)piperazin-1-yl)-N,N-dimethylethan-1-amine] | 2.62 fold and 2.62 ± 0.34 fold | 5.43 fold and 5.43 ± 0.21 fold | – | – | – | – | – | – | –
7 | Cc1ccc2c(c1)-n1cccc1C(c1cccnc1N1CCN(CCN(C)C)CC1)O2 (centres unmarked) [Compound 68, N,N-Dimethyl-2-(4-(3-(8-methyl-4H-benzo[b]pyrrolo[1,2-d][1,4]oxazin-4-yl)pyridin-2-yl)piperazin-1-yl)ethan-1-amine] | 2.99 ± 0.05 fold | 4.56 ± 0.04 fold | – | – | – | – | – | – | –
8 | c1ccc2c(c1)NC(c1cccnc1N1CCN(CCN3CCC3)CC1)c1cccn1-2 (centres unmarked) [Compound 45, 4-(2-(4-(2-(Azetidin-1-yl)ethyl)piperazin-1-yl)pyridin-3-yl)-4,5-dihydropyrrolo[1,2-a]quinoxaline] | 2.81 ± 0.01 fold | 5.85 ± 0.01 fold | – | – | – | – | – | – | –
